Key:
Type in all cases: in vivo, human
[1] = test system: patient who had loss of taste and smell from COVID-19; test: Psychophysical smell test, forced-choice three-stimuli stepwise-staircase technique (detection and recognition thresholds for four odors)
Excerpt: The Patient initially reported their sensory dysfunction as either loss of taste (i.e., flavor) and/or smell function. This subjective response was documented by objective psychophysical measurements of olfactory function administered to each patient by use of a forced-choice, three-stimuli, stepwise-staircase technique in a fixed, controlled design (1, 2). Efficacy of this technique and results of testing were previously documented in a double-blind clinical trial (2). Four odors were used; they were pyridine (dead-fish odor), nitrobenzene (bitter-almond odor), thiophene (petroleum-like odor) and amyl acetate (banana-oil odor). Detection thresholds (DT), and recognition thresholds (RT) values for each odor were determined as previously described (1, 2). Thresholds were converted into bottle units (BU) as previously described (2) and results reported as M of correct responses for each odor in each treatment group. References: (1) Henkin, R. I. Evaluation and treatment of human olfactory dysfunction, in Otolaryngology (English, G. M. Ed.), Lippincott, Philadelphia, 1993, Vol. 2, pp. 1-86. (2) Henkin, R. I., Schecter, P. J., Friedewald, W. T., DeMets, D. L., Raff, M. S. A double blind study of the effects of zinc sulfate on taste and smell dysfunction. Amer. J. Med. Sci. 1976; 272:285-299.
(§1) Theophylline was administered to a patient who had loss of taste and smell from COVID-19. A formulation containing 80 μg of theophylline was administered via two actuations from nasal spray device once per day. Prior to the initial administration of theophylline, a baseline smell test was performed. A follow-up smell test was performed 3 months after the initial administration. […] The patient's detection threshold (DT) and recognition threshold (RT) for pyridine (Pyr), nitrobenzene (NO2B), thiophene (Thio) and amyl acetate (AA) was determined before treatment (pre) and after treatment (3M). In all four odorant tests, the patient's detection threshold and recognition threshold improved. An improvement of 1 bottle unit means that a patient could detect and/or recognize an odorant that was 10 times lower in concentration, when compared to baseline. For example, the recognition threshold (RT) of AA improved by 8 bottle units, also equivalent to an improvement of 8 orders of magnitude. In this case, the patient could detect a concentration of AA that was 108 lower in concentration. Bottle unit numbers that are 5 or lower are considered to be in the range of normal.

[2] = test system: patient who had loss of taste and smell from COVID-19; test: Side effects during intranasal theophylline treatment; conditions: 80 μg theophylline via two actuations from nasal spray device once per day, 3 months
Experimental: as §1

[3] = test system: patient diagnosed or previously diagnosed with COVID-19 and having at least partial smell or taste loss; test: Example 1: intranasal theophylline formulation in a patient with smell or taste loss associated with COVID-19
Experimental: A patient diagnosed or previously diagnosed with COVID-19 and having at least partial smell or taste loss associated with COVID-19 is treated with an intranasally administered a formulation comprising theophylline, which is given once per day, in each naris, for about 30 days, 60 days, or 90 days.
Administration of the formulation produces an increase in the patient's sonic hedgehog levels or cyclic nucleotide levels within about 30 days, 60 days, or 90 days.

[4] = 3 months after initial administration, 80 μg theophylline intranasal once per day, baseline (Pre) 10, 5 or lower is normal
[5] = 3 months after initial administration, 80 μg theophylline intranasal once per day, baseline (Pre) 11, 5 or lower is normal
[6] = 3 months after initial administration, 80 μg theophylline intranasal once per day, baseline (Pre) 12, 5 or lower is normal

## Cn1c(=O)c2[nH]cnc2n(C)c1=O [theophylline]
[1]; [4]
  Detection threshold (DT), thiophene (Thio): 4 bottle units
  Recognition threshold (RT), thiophene (Thio): 4 bottle units
[1]; [5]
  Detection threshold (DT), amyl acetate (AA): 4 bottle units
  Detection threshold (DT), nitrobenzene (NO2B): 9 bottle units
  Detection threshold (DT), pyridine (Pyr): 7 bottle units
  Recognition threshold (RT), pyridine (Pyr): 7 bottle units
[1]; [6]
  Recognition threshold (RT), amyl acetate (AA): 4 bottle units
  Recognition threshold (RT), nitrobenzene (NO2B): 9 bottle units
[1]; 3 months vs baseline, 1 bottle unit = 10 times lower concentration
  Improvement of recognition threshold (RT) of AA: 8 bottle units
[1]; 3 months vs baseline, pyridine, nitrobenzene, thiophene, amyl acetate
  Detection threshold and recognition threshold in all four odorant tests: improved
[2]
  Side effects: No side effects were reported
[3]; intranasal once per day in each naris for about 30, 60 or 90 days
  Patient's ability to taste and smell: significant increase
[3]; intranasal once per day in each naris, within about 30 days, 60 days, or 90 days
  Patient's sonic hedgehog levels or cyclic nucleotide levels: increase
